The text below walks through data of US5698556A, “Methotrexate analogs and methods of using same” (priority 1995, dated 1997).

Like-named read-outs stand apart in the source and are kept apart here.

For series [1] the following is noted: compared with MTX; cited from earlier work.
The target of another series is T1, Chicken Liver DHFR (Gallus gallus, UniProt P00378).
T1 construct: purchased Sigma Chemical Co. (St. Louis, Mo.); host or cells: chicken liver
T1 sequence (P00378 1-189): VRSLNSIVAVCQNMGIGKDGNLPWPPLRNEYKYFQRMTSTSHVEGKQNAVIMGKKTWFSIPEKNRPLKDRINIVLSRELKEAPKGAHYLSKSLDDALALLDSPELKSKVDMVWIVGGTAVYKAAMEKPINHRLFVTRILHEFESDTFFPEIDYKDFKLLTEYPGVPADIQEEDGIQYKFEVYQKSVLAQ
Description: Inhibition of DHFR, spectrophotometric assay (chicken liver DHFR). Format: biochemical. As to conditions: for IC50: chicken liver DHFR, pH 7.0, read-out: ID50 (drug concentration which inhibits enzyme activity by 50%). The protocol: (§1) Tests were conducted to determine the ID50 value for methotrexate analogs of the present invention. The ID50 value is the drug concentration which inhibits enzyme activity by 50%. […] DHFR activity was measured as the decrease over time in absorbance at 340 nm.
(§2) DHFR was diluted prior to each experiment in 50 mM potassium phosphate buffer (pH 7.0) containing 0.1 mM NADPH and 0.1% BSA.
(§3) Inhibition studies were carried out by adding to a 1.0 ml cuvette the assay solution containing all components except dihydrofolate, and then incubating the solution for 2 minutes at room temperature. The absorbance of the solution at 340 nm was recorded immediately following the addition of dihydrofolate. The mixtures were then incubated at room temperature for 5 minutes, and the absorbance at 340 nm was again recorded. […] ID50 values were determined by interpolation from graphs of percent of inhibition plotted against drug concentration.

The target in another series is T2, L. casei DHFR (Lacticaseibacillus casei, UniProt P00381).
T2 construct: purchased New England Enzyme Center (Boston, Mass.); host or cells: MTX-resistant L. casei
T2 sequence (P00381 whole entry): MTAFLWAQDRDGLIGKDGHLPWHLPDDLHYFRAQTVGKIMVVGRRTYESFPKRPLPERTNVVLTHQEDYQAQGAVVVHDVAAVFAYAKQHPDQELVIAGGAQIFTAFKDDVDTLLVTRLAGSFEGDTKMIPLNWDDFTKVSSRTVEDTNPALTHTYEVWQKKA
Description: Inhibition of DHFR, spectrophotometric assay (L. casei DHFR). Format: biochemical. As to conditions: pH 7.0, read-out: ID50 (drug concentration which inhibits enzyme activity by 50%). The protocol: as §1, §2, §3

The next series deals with K562 cells. Description: Growth inhibition of human leukemia cells (K562). Format: cell-based. As to conditions: for IC50: Homo sapiens; for times more compound as compared with MTX required to inhibit cell growth by 50%: relative to MTX.
The test system of a further series is CCRF/CEM Cells. The series can be described thus: Growth inhibition of human leukemia cells (CCRF/CEM). As to conditions: 120 hours continuous exposure. Format: cell-based. The protocol:
Two suspensions of human leukemia cell lines were employed in this study. […] Cells were maintained at 37° C. with 5% CO2 in air, and were cultured using standard sterile tissue culture techniques.
Prior to toxicity studies, cells were maintained 48 hours in the absence of added inhibitor. […] Inhibitor concentrations ranging from 10^-12 to 10^-4 M were added to the cultures except for a control culture, which contained no added drug. Cell counts were performed by hematometer counting during 120 hours of continuous exposure to the drugs. The IC50 value was obtained by interpolation from graphs of percent growth inhibition plotted against drug concentration.

Series [2] in a line: Metabolism in rabbit liver homogenate (formation of 7-OH-MTX). Format: in vitro ADME, New Zealand white rabbit. As to conditions: pH 7.6. The protocol:
For these experiments, freshly isolated liver from a New Zealand white rabbit was homogenized in 400 ml of cold buffer of pH 7.6 consisting of 10 mM Tris-HCl, 25 mM sucrose and 10 mM MgCl2. The homogenate was centrifuged at 1000×g for 20 minutes at 4° C., and the resulting pellet was resuspended in about 14 ml of the same buffer. […] Two ml samples of the homogenate were removed at 10 minute intervals. Samples were boiled S minutes to denature the proteins, and then centrifuged to pelletize cell debris. To determine inhibitor and 7-OH-MTX levels, 100 μl of the supernatant was analyzed by HPLC. For HPLC analysis, a Perkin-Elmer 410 LC solvent delivery system and a 5-μm IBM ODS column (4.1×250 mm) with a Guard column were employed. The mobile phase consisted of 0.1M monobasic sodium phosphate and 0.1M Tris-HCl in methanol at a final pH of 7.6. […] Detector output was recorded and integrated by a Perkin-Elmer LCI 100 integrator.

The conditions of series [3]: cited from earlier work.
Setting [4] is: K562 cells, 120 hours continuous exposure, read-out: IC50.

Description for K562 cells: The IC50 value is the drug concentration which inhibits cancer cell growth by 50%.
Two suspensions of human leukemia cell lines were employed in this study. The myelogenous leukemia cell line K562 was cultured in RPMI 1640 (JRH Biosciences) containing 10% filtered fetal bovine serum (FBS; Irvine Scientific), and the lymphoblastic leukemia cell line CCRF/CEM was cultured in RPMI 1640 containing 20% FBS, 100 U/ml penicillin (GIBCO Laboratories, Grand Island, N.Y.), and 100 μg/ml streptomycin (GIBCO). Cells were maintained at 37° C. with 5% CO2 in air, and were cultured using standard sterile tissue culture techniques.
Prior to toxicity studies, cells were maintained 48 hours in the absence of added inhibitor. Logarithmically growing cells were inoculated at 1×10^4 cells/ml in tissue culture grade Petri dishes (35×10 mm), and, following a suitable recovery period, were treated with chemical agents. Inhibitor concentrations ranging from 10^-12 to 10^-4 M were added to the cultures except for a control culture, which contained no added drug. Cell counts were performed by hematometer counting during 120 hours of continuous exposure to the drugs. The IC50 value was obtained by interpolation from graphs of percent growth inhibition plotted against drug concentration.

`CN(Cc1cnc2nc(N)nc(N)c2n1)c1c(F)cc(C(=O)N[C@@H](CCC(=O)O)C(=O)O)cc1F` [3',5'-difluoroMTX]: the “antifolate antagonism / biological activity, in words” value in series [1] was “little or no increase in biological activity as compared with MTX”.
In the case of `CNc1nc2nc(N)nc(N)c2nc1CN(C)c1ccc(C(=O)N[C@@H](CCC(=O)O)C(=O)O)cc1` [7-CH3 NH-MTX, 4-amino-7-methylamino-N-10-methylpteroylglutamic acid], the IC50 came to 300 nM on Chicken Liver DHFR, 200 nM at L. casei DHFR, 300 nM in the series on K562 cells (setting [4]) and 300 nM with CCRF/CEM Cells. Further, the “times more compound as compared with MTX required to inhibit cell growth by 50%” value in the series on K562 cells (K562 and CCRF/CEM cells) was 25-40 times.
`CN(Cc1nc2c(N)nc(N)nc2nc1P(=O)(O)O)c1ccc(C(=O)N[C@@H](CCC(=O)O)C(=O)O)cc1` [7-P(O)(OH)2 -MTX]: the IC50 turned out to be 10000 nM at Chicken Liver DHFR, 15000 nM at L. casei DHFR and 6000 nM in the series on K562 cells (setting [4]).
As for `CN(Cc1nc2c(N)nc(N)nc2nc1N)c1ccc(C(=O)N[C@@H](CCC(=O)O)C(=O)O)cc1` [7-NH2 -MTX, 4,7-diamino-N-10-methylpteroylglutamic acid], the IC50 was 140 nM at Chicken Liver DHFR, 168 nM on L. casei DHFR, 50 nM in the series on K562 cells (setting [4]) and 76 nM in the series with CCRF/CEM Cells. Besides, the “effectiveness as DHFR inhibitor, in words” value at Chicken Liver DHFR (chicken liver and L. casei DHFR) is recorded as “still relatively effective as a DHFR inhibitor”. In addition, in the series with K562 cells (K562 and CCRF/CEM cells), the “ability to inhibit growth of leukemia cell lines, in words” value is “still effective at inhibiting the growth of the leukemia cell lines”. In addition, the “times more compound as compared with MTX required to inhibit cell growth by 50%” value in the series on K562 cells (K562 and CCRF/CEM cells) is on record as 6-7 times. Besides, the “metabolism to 7-OH-MTX, in words” value in series [2] was “not even a slight metabolism of 7-NH2 -MTX to 7-OH-MTX could be detected over an hour”.
As to `CC(C)Oc1nc2nc(N)nc(N)c2nc1CN(C)c1ccc(C(=O)N[C@@H](CCC(=O)O)C(=O)O)cc1` [7-OCH(CH3)2 -MTX], the IC50 was found to be 200 nM at Chicken Liver DHFR, 670 nM at L. casei DHFR, 1000 nM in the series on K562 cells (setting [4]) and 6000 nM in the series on CCRF/CEM Cells.
The corresponding values for `COc1nc2nc(N)nc(N)c2nc1CN(C)c1ccc(C(=O)N[C@@H](CCC(=O)O)C(=O)O)cc1` [7-OCH3 -MTX] are 750 nM, 1000 nM, 450 nM and 4500 nM.
Turning to `CN(Cc1nc2c(N)nc(N)nc2nc1N=[N+]=[N-])c1ccc(C(=O)N[C@@H](CCC(=O)O)C(=O)O)cc1` [7-N3 -MTX], the IC50 stood at 400 nM at Chicken Liver DHFR, 200 nM on L. casei DHFR, 1000 nM in the series with K562 cells (setting [4]) and 2000 nM in the series on CCRF/CEM Cells.
On to `CN(Cc1cnc2nc(N)nc(N)c2n1)c1ccc(C(=O)N[C@@H](CCC(=O)O)C(=O)O)cc1` [MTX], for which the “renal and hepatic toxicity, in words” value in series [3] (high dose regimen) is “associated with renal and hepatic toxicity”. The “conversion in vivo, in words” value in series [3] (man and monkeys) is given as “converted in vivo to 7-hydroxymethotrexate (7-OH-MTX)”. Besides, the IC50 in the series on K562 cells (K562, 120 h) is 8 nM. In addition, the “metabolism to 7-OH-MTX, in words” value in series [2] (over an hour, 37° C.) was “substantially metabolized to 7-OH-MTX within an hour”. In series [2] (rabbit, liver homogenate), this compound came in with a metabolised at 10 min of approximately 50% and a share remaining at 1 h of less than 25%. In the series with CCRF/CEM Cells, the IC50 turned out to be 11 nM.
Take `CCOc1nc2nc(N)nc(N)c2nc1CN(C)c1ccc(C(=O)N[C@@H](CCC(=O)O)C(=O)O)cc1` [7-OC2 H5 -MTX]: the IC50 came out at 2000 nM at Chicken Liver DHFR, 1200 nM at L. casei DHFR, 850 nM with K562 cells (setting [4]) and 4000 nM with CCRF/CEM Cells.
The like results for `CN(Cc1nc2c(N)nc(N)nc2nc1F)c1ccc(C(=O)N[C@@H](CCC(=O)O)C(=O)O)cc1` [7-F-MTX] were, in that order, 1500 nM, 500 nM, 850 nM and 5000 nM.
In the case of `Cc1nc2nc(N)nc(N)c2nc1CN(C)c1ccc(C(=O)N[C@@H](CCC(=O)O)C(=O)O)cc1` [7-methyl substituted MTX], the “antifolate antagonism / biological activity, in words” value in series [1] is “impaired antifolate antagonism”.
For the compound `CN(Cc1nc2c(N)nc(N)nc2nc1Cl)c1ccc(C(=O)N[C@@H](CCC(=O)O)C(=O)O)cc1` [7-Cl-MTX], the IC50 is 20000 nM on Chicken Liver DHFR, 50000 nM on L. casei DHFR, 10000 nM in the series on K562 cells (setting [4]) and 10000 nM in the series on CCRF/CEM Cells.
Consider `CC(C)Nc1nc2nc(N)nc(N)c2nc1CN(C)c1ccc(C(=O)N[C@@H](CCC(=O)O)C(=O)O)cc1` [7-NHCH(CH3)2 -MTX], for which the IC50 on Chicken Liver DHFR was 500 nM; on L. casei DHFR, 750 nM; with K562 cells (setting [4]) it was 500 nM; in the series on CCRF/CEM Cells, 5000 nM.

The amount remaining is the share of the starting amount still present when the sample was taken. Low readings indicate more turnover, high ones less turnover.
